Laboratory results taken from PubChem BioAssay AID248 (DTP/NCI, 2004).
Values joined by “and” are separate entries in the source; they are usually repeats but may differ in a detail not shown here. Identical values can stand only once. Toxic doses and inconclusive results are not listed. Cut-off read from the data, not from the text of the source: active = T/C of 150% or more; inactive = T/C below 125%.

Test system: L1210 leukemia ip in BDF1 mice, survival T/C
Test: NCI In Vivo Anticancer Drug Screen. Data for tumor model L1210 Leukemia (intraperitoneal) in B6D2F1 (BDF1) mice
Conditions: endpoint: mean survival time, higher = longer survival
How it was run: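 Ratio derived from survival: compound-dosed mice over vehicle-dosed mice, all bearing a transplantable tumor.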

[1] = dose: 100.0 mg/kg/injection, schedule: Q01DX009 (ip), vehicle: Klucel (hydroxypropylcellulose) (HPC)
[2] = dose: 100.0 mg/kg/injection, schedule: Q04DX003 (ip), vehicle: Klucel (hydroxypropylcellulose) (HPC)
[3] = dose: 200.0 mg/kg/injection, schedule: Q01DX009 (ip), vehicle: Klucel (hydroxypropylcellulose) (HPC)
[4] = dose: 200.0 mg/kg/injection, schedule: Q04DX003 (ip), vehicle: Klucel (hydroxypropylcellulose) (HPC)
[5] = dose: 400.0 mg/kg/injection, schedule: Q01DX009 (ip), vehicle: Klucel (hydroxypropylcellulose) (HPC)
[6] = dose: 400.0 mg/kg/injection, schedule: Q04DX003 (ip), vehicle: Klucel (hydroxypropylcellulose) (HPC)
[7] = dose: 75.0 mg/kg/injection, schedule: Q01DX001 (ip), vehicle: saline
[8] = dose: 150.0 mg/kg/injection, schedule: Q01DX001 (ip), vehicle: saline
[9] = dose: 300.0 mg/kg/injection, schedule: Q01DX001 (ip), vehicle: saline
[10] = dose: 100.0 mg/kg/injection, schedule: Q04DX003 (ip), vehicle: saline with Tween-80
[11] = dose: 200.0 mg/kg/injection, schedule: Q04DX003 (ip), vehicle: saline with Tween-80
[12] = dose: 400.0 mg/kg/injection, schedule: Q04DX003 (ip), vehicle: saline with Tween-80
[13] = dose: 100.0 mg/kg/injection, schedule: Q01DX001 (ip), vehicle: saline
[14] = dose: 200.0 mg/kg/injection, schedule: Q01DX001 (ip), vehicle: saline
[15] = dose: 400.0 mg/kg/injection, schedule: Q01DX001 (ip), vehicle: saline
[16] = dose: 100.0 mg/kg/injection, schedule: Q01DX009 (ip), vehicle: saline
[17] = dose: 100.0 mg/kg/injection, schedule: Q04DX003 (ip), vehicle: saline
[18] = dose: 200.0 mg/kg/injection, schedule: Q01DX009 (ip), vehicle: saline
[19] = dose: 200.0 mg/kg/injection, schedule: Q04DX003 (ip), vehicle: saline
[20] = dose: 400.0 mg/kg/injection, schedule: Q04DX003 (ip), vehicle: saline
[21] = dose: 100.0 mg/kg/injection, schedule: Q01DX001 (ip), vehicle: carboxymethylcellulose (CMC)
[22] = dose: 200.0 mg/kg/injection, schedule: Q01DX001 (ip), vehicle: carboxymethylcellulose (CMC)
[23] = dose: 400.0 mg/kg/injection, schedule: Q01DX001 (ip), vehicle: carboxymethylcellulose (CMC)
[24] = dose: 100.0 mg/kg/injection, schedule: Q01DX001 (ip), vehicle: saline with Tween-80
[25] = dose: 200.0 mg/kg/injection, schedule: Q01DX001 (ip), vehicle: saline with Tween-80
[26] = dose: 400.0 mg/kg/injection, schedule: Q01DX001 (ip), vehicle: saline with Tween-80

Measured: T/C

O=C1OC(c2ccccc2)=N/C1=C/c1cccs1
inactive: [1] 104 % of control | [2] 98 % of control | [3] 97 % of control | [4] 104 % of control | [5] 101 % of control | [6] 106 % of control

C=C(C)C1(CC)C(=O)NC(=O)N(C)C1=O (stereo unspecified)
inactive: dose: 75.0 mg/kg/injection, schedule: Q01DX001 (ip), vehicle: carboxymethylcellulose (CMC) 102 % of control | [7] 97 % of control | dose: 150.0 mg/kg/injection, schedule: Q01DX001 (ip), vehicle: carboxymethylcellulose (CMC) 105 % of control | [8] 102 % of control | dose: 300.0 mg/kg/injection, schedule: Q01DX001 (ip), vehicle: carboxymethylcellulose (CMC) 103 % of control | [9] 108 % of control

CC(OC(=O)CC(=O)CCl)c1ccccc1 (stereo unspecified)
inactive: dose: 100.0 mg/kg/injection, schedule: Q04DX002 (ip), vehicle: Klucel (hydroxypropylcellulose) (HPC) 102 % of control | dose: 200.0 mg/kg/injection, schedule: Q04DX002 (ip), vehicle: Klucel (hydroxypropylcellulose) (HPC) 98 % of control | dose: 400.0 mg/kg/injection, schedule: Q04DX002 (ip), vehicle: Klucel (hydroxypropylcellulose) (HPC) 87 % of control

NC(=S)S/C=C/C(=O)O
inactive: dose: 50.0 mg/kg/injection, schedule: Q01DX009 (ip), vehicle: saline with Tween-80 96 % of control | dose: 100.0 mg/kg/injection, schedule: Q01DX009 (ip), vehicle: saline with Tween-80 93 % of control | [10] 110 % of control | dose: 200.0 mg/kg/injection, schedule: Q01DX009 (ip), vehicle: saline with Tween-80 86 % of control | [11] 100 % of control | [12] 97 % of control

Cc1cc(=O)c(CCl)n[nH]1
inactive: dose: 25.0 mg/kg/injection, schedule: Q01DX009 (ip), vehicle: Klucel (hydroxypropylcellulose) (HPC) 115 % of control | dose: 25.0 mg/kg/injection, schedule: Q04DX003 (ip), vehicle: Klucel (hydroxypropylcellulose) (HPC) 120 % of control | dose: 50.0 mg/kg/injection, schedule: Q04DX003 (ip), vehicle: Klucel (hydroxypropylcellulose) (HPC) 116 % of control | [2] 97 % of control and 89 % of control

Cn1cc(/C=C\[N+](=O)[O-])c2ccccc21
inactive: [13] 98 % of control | [14] 98 % of control | [15] 98 % of control

O=C(O)CC(O)C(F)(F)C(F)(F)C(F)(F)F (stereo unspecified)
inactive: [16] 90 % of control | [17] 100 % of control | [18] 86 % of control | [19] 97 % of control | [20] 87 % of control

O=C(O)c1ccc(Cl)cc1Cl
inactive: dose: 100.0 mg/kg/injection, schedule: Q04DX002 (ip), vehicle: gum acacia 88 % of control | dose: 200.0 mg/kg/injection, schedule: Q04DX002 (ip), vehicle: gum acacia 98 % of control | dose: 400.0 mg/kg/injection, schedule: Q04DX002 (ip), vehicle: gum acacia 100 % of control

O=C(O)c1c(F)c(F)c(Oc2c(F)c(F)c(F)c(Oc3c(F)c(F)c(C(=O)O)c(F)c3F)c2F)c(F)c1F
inactive: [1] 107 % of control | [2] 100 % of control | [3] 98 % of control | [4] 97 % of control

Cc1cccc(C)c1NC(=O)Nc1ccc(C(=O)O)cc1
inactive: [1] 101 % of control | [3] 108 % of control | [5] 103 % of control

CC1=C/C(=N/N=c2\ccn(O)cc2C)C=CC1=N
inactive: dose: 50.0 mg/kg/injection, schedule: Q04DX002 (sc), vehicle: saline with Tween-80 100 % of control | dose: 100.0 mg/kg/injection, schedule: Q04DX002 (sc), vehicle: saline with Tween-80 100 % of control | dose: 200.0 mg/kg/injection, schedule: Q04DX002 (sc), vehicle: saline with Tween-80 100 % of control | dose: 400.0 mg/kg/injection, schedule: Q04DX002 (sc), vehicle: saline with Tween-80 93 % of control

CSc1nnc2c3ccccc3ccn12
inactive: [21] 104 % of control | [22] 96 % of control | [23] 93 % of control

CCOC(=O)C1=Cc2ccccc2OC1
inactive: [7] 94 % of control | [8] 96 % of control | [9] 91 % of control

O=CC(O)C(O)C(OC1OC(CO)C(OC2OC(CO)C(O)C(O)C2O)C(O)C1O)C(O)CO (stereo unspecified)
inactive: [17] 93 % of control | [19] 93 % of control | [20] 94 % of control

Nc1cccc2scnc12
inactive: [10] 90 % of control | [11] 95 % of control | [12] 90 % of control

C[N+](C)(C)N=C1CCCCC1
inactive: [13] 104 % of control | [14] 104 % of control

COC1C(/C=C/C(C)=O)OC2OC(C)(C)OC21 (stereo unspecified)
inactive: dose: 6.25 mg/kg/injection, schedule: Q01DX009 (ip), vehicle: saline 105 % of control | dose: 12.5 mg/kg/injection, schedule: Q01DX009 (ip), vehicle: saline 105 % of control | dose: 25.0 mg/kg/injection, schedule: Q01DX009 (ip), vehicle: saline 107 % of control | dose: 50.0 mg/kg/injection, schedule: Q01DX009 (ip), vehicle: saline 98 % of control | [16] 100 % of control | [18] 98 % of control

C/C=N\O
inactive: dose: 25.0 mg/kg/injection, schedule: Q01DX001 (ip), vehicle: saline 112 % of control | dose: 50.0 mg/kg/injection, schedule: Q01DX001 (ip), vehicle: saline 102 % of control | [13] 102 % of control

Cc1ccc(S(=O)(=O)N2CCC(Br)(Br)C(=O)c3ccccc32)cc1
inactive: [16] 97 % of control | [18] 100 % of control | dose: 400.0 mg/kg/injection, schedule: Q01DX009 (ip), vehicle: saline 102 % of control

CC(C)(C)NC(=O)C1C2CCC1C2Cl (stereo unspecified)
inactive: [7] 96 % of control | [8] 92 % of control | [9] 90 % of control

CCCCCCCCCCCC(=O)OCCOCCOCCOCCOCCOCCOCCOCCOCCO
inactive: [13] 104 % of control | [14] 98 % of control | [15] 98 % of control

O=C(OC(c1ccccc1)c1ccccc1)c1ccc([N+](=O)[O-])cc1
inactive: [21] 98 % of control | [22] 104 % of control | [23] 96 % of control

CCCCCCCCN(C)Cc1cc(C(C)(C)C)cc(-c2ccccc2)c1O
inactive: [24] 94 % of control | [25] 90 % of control | [26] 92 % of control

CC(=O)OC1OC(CS[As](C)C)C(OC(C)=O)C(OC(C)=O)C1OC(C)=O (stereo unspecified)
inactive: [2] 94 % of control | [4] 105 % of control

O=c1oc(=O)c2ccccc2c2ccccc12
inactive: dose: 100.0 mg/kg/injection, schedule: Q01DX001 (ip), vehicle: other 93 % of control | dose: 200.0 mg/kg/injection, schedule: Q01DX001 (ip), vehicle: other 96 % of control | dose: 400.0 mg/kg/injection, schedule: Q01DX001 (ip), vehicle: other 107 % of control

CC(C)CC1C(C(C)C)C=NN1C (stereo unspecified)
inactive: dose: 50.0 mg/kg/injection, schedule: Q01DX001 (ip), vehicle: carboxymethylcellulose (CMC) 100 % of control | [21] 86 % of control | [22] 100 % of control | [23] 94 % of control

CCCCCC(Br)C(Br)CC(Br)C(Br)CCCCCCCC(=O)O (stereo unspecified)
inactive: [1] 95 % of control | [2] 98 % of control | [10] 98 % of control | [3] 90 % of control | [11] 97 % of control | [5] 93 % of control | [6] 93 % of control | [12] 91 % of control

Cc1cccc(Cl)c1OCC(=O)Nc1ccccc1
inactive: dose: 100.0 mg/kg/injection, schedule: Q04DX002 (ip), vehicle: saline with Tween-80 101 % of control | dose: 200.0 mg/kg/injection, schedule: Q04DX002 (ip), vehicle: saline with Tween-80 104 % of control

O=C1CCCN1Cl
inactive: [24] 96 % of control | [25] 96 % of control | [26] 96 % of control

CCOC(=O)c1c(-c2ccccc2)csc1NC(=O)c1ccccc1
inactive: dose: 50.0 mg/kg/injection, schedule: Q04DX003 (ip), vehicle: saline with Tween-80 92 % of control | [10] 90 % of control | [11] 89 % of control | [12] 90 % of control
